One series deals with ASPC1 cancer cells. In words: Combination of JAC-B2 with another drug, cell survival by Pico Green, BLISS/HSA plot analyses. The format is cell-based. The conditions noted are these: combined with PDDX04, 5 days, FIG. 7P. From the text: (§1) We analyzed cell survival using Pico Green and determined the combinational effects through BLISS/HSA plot analyses.
Another series concerns HT29 cancer cells. The description is as above. It counts as cell-based. The settings on record: combined with Cobimetinib, 5 days, FIG. 7O.
Excerpt: as §1

The subject of a further series is MIA-PaCa2 cancer cells. Kind of series: Combination of JAC-B2 or JAC-R2 with another drug, cell survival by Pico Green, BLISS/HSA plot analyses. The format is cell-based. The protocol:
as §1
MIA-PaCa2 pancreatic cancer cells were purchased from the American Type Culture Collection (ATCC, Manassas, VA, USA) and grown in normal culture media (DMEM media, 10% FBS, 1% L-glutamine, 1% Penicillin-Streptomycin) at normal conditions (37° C., 5% CO2). Cells were trypsinized and plated at 1 thousand cells per well and in 96-well plates. […] Cell viability was assessed using pico-green dsDNA measurement and IC50S were calculated using GraphPad® (GraphPad Software, San Diego, CA, USA) by employing normalized nonlinear regression models. A summary of the combined efficacy of a compound of Formula I and an additional therapeutic agent is show in Table 2.

Series [1] is described as follows: Solubility of BSA-containing formulations (post vortexing, 30 min and overnight at 18° C.). The format is physicochemical. The settings on record: BSA-containing formulation, aqueous with cosolvent or surfactant or cyclodextrin, compound 2 mg/mL; for solubility at 30 min / solubility: 18 °C; for solubility at 30 min: after 30 minutes incubation at 18° C.; for solubility: overnight incubation at 18° C.; for solubility at 30 s: post vortexing. The protocol: Vortexing was conducted using a Denville Vortexer 59 (Denville Scientific Inc.), at maximum speed for 30 seconds. As used herein, the term overnight refers to a period lasting at least about 12-24 hours.

The nature of series [2]: Solubility of glycerol-containing formulations (post vortexing, 30 min and overnight at 18° C.). It counts as physicochemical. The conditions noted are these: glycerol-containing formulation, compound 2 mg/mL; for solubility at 30 min / solubility: 18 °C; for solubility at 30 min: after 30 minutes incubation at 18° C.; for solubility: overnight incubation at 18° C.; for solubility at 30 s: post vortexing. The protocol: Tables 3A, 3B, and 3C describe solubility experiments conducted with the indicated compounds under the listed conditions. Vortexing was conducted using a Denville Vortexer 59 (Denville Scientific Inc.), at maximum speed for 30 seconds. As used herein, the term overnight refers to a period lasting at least about 12-24 hours.

[3] abbreviates: combined with Azacitidine, 5 days, MIA-PaCa2, FIG. 7J (JAC-B2), FIG. 7L (JAC-R2).
Where [4] appears, read: combined with Decitabine, 5 days, MIA-PaCa2, FIG. 7I (JAC-B2), FIG. 7K (JAC-R2).
Setting [5] is: combined with Paclitaxel, 5 days, FIG. 7F (JAC-B2), FIG. 7M (JAC-R2).

“Also recorded” adds a separate entry of the source.

This passage reports Effect of combination and solubility results from US20230150960A1, “COMPOSITIONS AND METHODS OF USING CYANINE DYES TO TARGET CANCER AND MITOCHONDRIA” (Thomas Jefferson University, priority 2020, published 2023).

With `CCN1/C(=C/C=C/C=C/c2sc3ccccc3[n+]2CC)Sc2ccccc21` [JAC-B2, Dithiazanine Iodide], the Effect of combination result is reported as “Synergistic” with ASPC1 cancer cells; “Synergistic” in the series with HT29 cancer cells; “Synergistic” with MIA-PaCa2 cancer cells (combined with 5-Fluorouracil, 5 days, FIG. 7N); “Synergistic” in the series on MIA-PaCa2 cancer cells (combined with Abemaciclib, 5 days, MIA-PaCa2, FIG. 7H); “Synergistic” in the series on MIA-PaCa2 cancer cells (combined with Adavosertib, 5 days, MIA-PaCa2, FIG. 7R); “Synergistic” in the series with MIA-PaCa2 cancer cells (setting [3]). Besides, the Effect of combination entry in the series on MIA-PaCa2 cancer cells (combined with Colchicine, 5 days, MIA-PaCa2, FIG. 7Q) is listed as “Synergistic”; in the series with MIA-PaCa2 cancer cells (setting [4]) it was “Synergistic”; with MIA-PaCa2 cancer cells (combined with Everolimus, 5 days, MIA-PaCa2, FIG. 7E), “Additive”; in the series on MIA-PaCa2 cancer cells (combined with Gemcitabine, 5 days, MIA-PaCa2, FIG. 7A), “antagonistic response; also recorded: Antagonistic/Additive”; with MIA-PaCa2 cancer cells (combined with Hydralazine, no figure), “Antagonistic/Additive”; in the series with MIA-PaCa2 cancer cells (combined with Irinotecan, 5 days, MIA-PaCa2, FIG. 7C) it was “Additive”. Besides, the Effect of combination entry in the series with MIA-PaCa2 cancer cells (combined with Metformin, no figure) is given as “Additive”; in the series with MIA-PaCa2 cancer cells (combined with Methotrexate, 5 days, MIA-PaCa2, FIG. 7B) it was “Additive”; in the series with MIA-PaCa2 cancer cells (combined with Olaparib, 5 days, MIA-PaCa2, FIG. 7D) it was “antagonistic response; also recorded: Antagonistic/Additive”; in the series with MIA-PaCa2 cancer cells (combined with Oxaliplatin, 5 days, MIA-PaCa2, FIG. 7G), “Synergistic”; in the series with MIA-PaCa2 cancer cells (setting [5]), “Synergistic”; in the series with MIA-PaCa2 cancer cells (combined with VE-821, 5 days, MIA-PaCa2, FIG. 7S) it was “Synergistic”.
Take `CCN1/C(=C/C(C)=C/c2sc3ccccc3[n+]2CC)Sc2ccccc21` [JAC-B2.5, 3,3′-Diethyl-9-methylthiacarbocyanine iodide]: the solubility at 30 min was < 2000 µg/mL in series [1] (BSA 40 mg/mL, read-out: Solubility of BSA-containing formulations after 30 min incubation at 18° C., 40 mg/mL); < 2000 µg/mL in series [1] (BSA 60 mg/mL, read-out: Solubility of BSA-containing formulations after 30 min incubation at 18° C., 60 mg/mL); < 2000 µg/mL in series [1] (BSA 80 mg/mL, read-out: Solubility of BSA-containing formulations after 30 min incubation at 18° C., 80 mg/mL); < 2000 µg/mL in series [1] (BSA 100 mg/mL, read-out: Solubility of BSA-containing formulations after 30 min incubation at 18° C., 100 mg/mL); < 2000 µg/mL in series [2] (aqueous with cosolvent or surfactant or cyclodextrin, 10% glycerol, read-out: Solubility of glycerol-containing formulations after 30 min incubation at 18° C., 10%); < 2000 µg/mL in series [2] (aqueous with cosolvent or surfactant or cyclodextrin, 20% glycerol, read-out: Solubility of glycerol-containing formulations after 30 min incubation at 18° C., 20%). Besides, the solubility at 30 min in series [2] (aqueous with cosolvent or surfactant or cyclodextrin, 30% glycerol, read-out: Solubility of glycerol-containing formulations after 30 min incubation at 18° C., 30%) is < 2000 µg/mL; in series [2] (aqueous with cosolvent or surfactant or cyclodextrin, 40% glycerol, read-out: Solubility of glycerol-containing formulations after 30 min incubation at 18° C., 40%) it was < 2000 µg/mL; in series [2] (aqueous with cosolvent or surfactant or cyclodextrin, 50% glycerol, read-out: Solubility of glycerol-containing formulations after 30 min incubation at 18° C., 50%), < 2000 µg/mL; in series [2] (0% glycerol, read-out: Solubility of glycerol-containing formulations after 30 min incubation at 18° C., 0%), < 2000 µg/mL. Besides, the solubility is < 2000 µg/mL in series [1] (BSA 40 mg/mL, read-out: Solubility of BSA-containing formulations after overnight incubation at 18° C., 40 mg/mL); < 2000 µg/mL in series [1] (BSA 60 mg/mL, read-out: Solubility of BSA-containing formulations after overnight incubation at 18° C., 60 mg/mL); < 2000 µg/mL in series [1] (BSA 80 mg/mL, read-out: Solubility of BSA-containing formulations after overnight incubation at 18° C., 80 mg/mL); < 2000 µg/mL in series [1] (BSA 100 mg/mL, read-out: Solubility of BSA-containing formulations after overnight incubation at 18° C., 100 mg/mL); < 2000 µg/mL in series [2] (aqueous with cosolvent or surfactant or cyclodextrin, 10% glycerol, read-out: Solubility of glycerol-containing formulations after overnight incubation at 18° C., 10%); < 2000 µg/mL in series [2] (aqueous with cosolvent or surfactant or cyclodextrin, 20% glycerol, read-out: Solubility of glycerol-containing formulations after overnight incubation at 18° C., 20%). In addition, the solubility in series [2] (aqueous with cosolvent or surfactant or cyclodextrin, 30% glycerol, read-out: Solubility of glycerol-containing formulations after overnight incubation at 18° C., 30%) is < 2000 µg/mL; in series [2] (aqueous with cosolvent or surfactant or cyclodextrin, 40% glycerol, read-out: Solubility of glycerol-containing formulations after overnight incubation at 18° C., 40%), < 2000 µg/mL; in series [2] (aqueous with cosolvent or surfactant or cyclodextrin, 50% glycerol, read-out: Solubility of glycerol-containing formulations after overnight incubation at 18° C., 50%) it was < 2000 µg/mL; in series [2] (0% glycerol, read-out: Solubility of glycerol-containing formulations after overnight incubation at 18° C., 0%) it was < 2000 µg/mL. In addition, the solubility at 30 s is < 2000 µg/mL in series [1] (BSA 40 mg/mL, read-out: Solubility of BSA-containing formulations post vortexing, 40 mg/mL); < 2000 µg/mL in series [1] (BSA 60 mg/mL, read-out: Solubility of BSA-containing formulations post vortexing, 60 mg/mL); < 2000 µg/mL in series [1] (BSA 80 mg/mL, read-out: Solubility of BSA-containing formulations post vortexing, 80 mg/mL); < 2000 µg/mL in series [1] (BSA 100 mg/mL, read-out: Solubility of BSA-containing formulations post vortexing, 100 mg/mL); < 2000 µg/mL in series [2] (aqueous with cosolvent or surfactant or cyclodextrin, 10% glycerol, read-out: Solubility of glycerol-containing formulations post vortexing, 10%); < 2000 µg/mL in series [2] (aqueous with cosolvent or surfactant or cyclodextrin, 20% glycerol, read-out: Solubility of glycerol-containing formulations post vortexing, 20%). Further, the solubility at 30 s in series [2] (aqueous with cosolvent or surfactant or cyclodextrin, 30% glycerol, read-out: Solubility of glycerol-containing formulations post vortexing, 30%) is < 2000 µg/mL; in series [2] (aqueous with cosolvent or surfactant or cyclodextrin, 40% glycerol, read-out: Solubility of glycerol-containing formulations post vortexing, 40%) it was < 2000 µg/mL; in series [2] (aqueous with cosolvent or surfactant or cyclodextrin, 50% glycerol, read-out: Solubility of glycerol-containing formulations post vortexing, 50%) it was < 2000 µg/mL; in series [2] (0% glycerol, read-out: Solubility of glycerol-containing formulations post vortexing, 0%), < 2000 µg/mL.
As to `CCN1/C(=C/C=C/C=C/c2oc3ccccc3[n+]2CC)Oc2ccccc21` [JAC-R2, 3′,3′-Diethyloxadicarbocyanine iodide], the Effect of combination result with MIA-PaCa2 cancer cells (setting [3]), with MIA-PaCa2 cancer cells (setting [4]) and in the series on MIA-PaCa2 cancer cells (setting [5]) was “Synergistic” each time.
